pIC50: −log10 of the molar value.

Assay [1] deals with G12C mutant of inactive KRAS (GDP) (Homo sapiens (Human), UniProt P01116, G12C). To be noted: reported in PTL 1 and NPL 2; cited from earlier work.
Assay [2] has as its system cancer cells with KRAS G12C mutation. To be noted: reported in PTL 1 and NPL 2; cited from earlier work.
For assay [3], the system named is tumor-bearing mice expressing KRAS G12C mutation. To be noted: reported in PTL 2 and NPL 3; cited from earlier work.
Assay [4] relates to NCI-H358 cells. Put plainly: Growth inhibition activity on KRAS-G12C mutant cell line (NCI-H358) (in vitro, CellTiter-Glo2.0). The format is cell-based. The following applies: Homo sapiens, NCI-H358, 72 h, 3-day culture in the presence of the compound. Here is the method:
NCI-H358 cells (ATCC, Cat #: CRL-5807), which are a KRAS-G12C mutant human lung cancer cell line, were suspended in a 10% fetal bovine serum-containing RPMI1640 medium (manufactured by Fujifilm Wako Pure Chemical Corporation.). The cell suspension was seeded into each well of a 384-well flat-bottom microplate and cultured in an incubator containing 5% CO2 gas at 37° C. for 1 day. The test compound was dissolved in DMSO, and diluted with DMSO to give a concentration 500 times the final concentration. The solution of the test compound in DMSO was diluted with the medium used for suspending cells and added to each well of the cell-culture plate to give a DMSO final concentration of 0.2%, followed by culture in an incubator containing 5% CO2 gas at 37° C. for another 3 days. The cell count after 3-day culture in the presence of the compound was measured using CellTiter-Glo2.0 (manufactured by Promega Corporation) in accordance with the protocol recommended by Promega Corporation. The growth inhibition rate was calculated from the following equation, and the concentration of the test compound at which 50% inhibition was achieved (IC50 (nM)) was determined. […] Growth Inhibition Rate (%)=(C−T)/(C)×100 • T: the emission intensity in a well into which a test compound was added. • C: the emission intensity in a well into which a test compound was not added.

For assay [5], the target named is G12C K-Ras4B (1-169) (Homo sapiens (Human), UniProt P01116, G12C). Put plainly: Test of compounds on whether to bind to KRASG12C (LC-MS compound binding rate). To be noted: final compound concentration of 2 μM, 1 μM protein, 25° C. for 2 hours. The method in brief: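 K-Ras4B (1-169) WT and G12C (1 μM each, mixed) in 1×TBS, 0.1 mM TCEP incubated with compound (final 2 μM) 2 h at 25° C; quenched with 0.2% formic acid. Intact-protein LC-MS (ESI+, deconvoluted); binding rate = adduct signal/(adduct + unbound signal), giving selectivity over WT.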

The target of assay [6] is KRAS G12C (Homo sapiens (Human), UniProt P01116, G12C). Put plainly: Inhibitory activity on KRAS G12C nucleotide (GDP-GTP) exchange reaction (Bodipy FL GDP, SOS1, GppNHp). It is filed as biochemical. The following applies: preincubation at 25° C. for 4 hours; SOS1 100 nM, GppNHp 1 μM, reaction 30 minutes. Here is the method:
The inhibitory activity of compounds on exchange reaction of GDP into GppNHp in Bodipy (trademark) FL-bound KRAS G12C was examined by fluorescence measurement using human recombinant KRAS G12C and SOS1 proteins.
For the preparation of KRAS G12C to which Bodipy FL GDP was bound, first, 50 μM^y KRAS G12C (amino acid region: 1-169) and 1 mM Bodipy FL GDP (Invitrogen, G22360) were incubated for 1 hour in a buffer (20 mM Tris-HCl (pH 7.5), 50 mM NaCl, 1 mM DTT) in ice in the presence of 2.5 mM EDTA. Thereafter, MgCl2 with a final concentration of 10 mM was added, and the mixture was incubated at room temperature for 30 minutes. The protein was allowed to pass through a NAP-5 column to remove free nucleotides and was used for compound evaluation.
For the measurement of the inhibitory activity of compounds on nucleotide exchange reaction, first, the compound of the present invention was diluted stepwise with dimethyl sulfoxide (DMSO). […] The change in fluorescence intensity of Bodipy FL (excitation wavelength: 485 nm, fluorescence wavelength: 520 nm) immediately after the start of reaction and after 30 minutes from the start of reaction was standardized. […]

Sequence of G12C mutant of inactive KRAS (GDP) (P01116-2 other isoform, or with tags, fused parts or gaps G12C): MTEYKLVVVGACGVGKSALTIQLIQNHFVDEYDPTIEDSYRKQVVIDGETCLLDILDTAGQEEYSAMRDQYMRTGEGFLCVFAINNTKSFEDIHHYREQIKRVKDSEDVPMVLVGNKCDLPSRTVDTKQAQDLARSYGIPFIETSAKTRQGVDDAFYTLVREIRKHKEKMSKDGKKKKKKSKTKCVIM

Consider `C=CC(=O)N1CC(N2CCN(C(=O)CNc3cc(C4(C)CC4)c(Cl)cc3O)CC2)C1` [ARS-853], for which the “binding to the cysteine of the G12C mutant of inactive KRAS (GDP)” value in assay [1] is “binds to the cysteine of the G12C mutant of inactive KRAS (GDP)”. Further, in assay [2], the induction of apoptosis entry is “inducing apoptosis in cancer cells with KRAS G12C mutation”.

For `C=CC(=O)N1CCN(c2ncnc3c(F)c(-c4c(O)cccc4F)c(Cl)cc23)CC1` [ARS-1620], the antitumor action entry in assay [3] is “exerts antitumor action in tumor-bearing mice expressing KRAS G12C mutation”.

Take `C=CC(=O)N1CC(NC(=O)c2c(Cl)nc(CNc3n[nH]c4cc(Cl)c(C(C)(C)C)cc34)n2[C@@H]2CCOC2)C1` [Example 102, (R)—N-(1-acryloylazetidin-3-yl)-2-(((5-(tert-butyl)-6-chloro-1H-indazol-3-yl)amino)methyl)-4-chloro-1-(tetrahydrofuran-3-yl)-1H-imidazole-5-carboxamide]: the pIC50 in assay [4] was 7.16. In addition, the “binding rate for G12C K-Ras4B (1-169)” value in assay [5] was “A (a binding rate of 80% or more is rated “A,”)”.

As to `C=CC(=O)N1CC(NC(=O)c2c(Cl)nc(CNc3n[nH]c4cc(Cl)c(C(C)(C)C)cc34)n2C2CCN(C)CC2)C1` [Example 103, N-(1-acryloylazetidin-3-yl)-2-(((5-(tert-butyl)-6-chloro-1H-indazol-3-yl)amino)methyl)-4-chloro-1-(1-methylpiperidin-4-yl)-1H-imidazole-5-carboxamide], the pIC50 in assay [4] is 7.54. The “binding rate for G12C K-Ras4B (1-169)” value in assay [5] is given as “A (a binding rate of 80% or more is rated “A,”)”.

Consider `C=CC(=O)N1CC(NC(=O)c2c(Cl)nc(CNc3n[nH]c4cc(Cl)c(C(C)(C)C)cc34)n2C2CCCOC2)C1` (centres unmarked) [Example 104, N-(1-acryloylazetidin-3-yl)-2-(((5-(tert-butyl)-6-chloro-1H-indazol-3-yl)amino)methyl)-4-chloro-1-(tetrahydro-2H-pyran-3-yl)-1H-imidazole-5-carboxamide], for which the negative logarithm of the IC50 (pIC50) in assay [4] was 7.04. Further, the “binding rate for G12C K-Ras4B (1-169)” value in assay [5] is recorded as “A (a binding rate of 80% or more is rated “A,”)”.

With `C=CC(=O)N1CC(NC(=O)c2c(Cl)nc(CNc3n[nH]c4cc(Cl)c(C(C)(C)C)cc34)n2C2CCCC2)C1` [Example 105, N-(1-acryloylazetidin-3-yl)-2-(((5-(tert-butyl)-6-chloro-1H-indazol-3-yl)amino)methyl)-4-chloro-1-cyclopentyl-1H-imidazole-5-carboxamide], the negative-log IC50 (pIC50) in assay [4] is 7.12. Also, the “binding rate for G12C K-Ras4B (1-169)” value in assay [5] is on record as “A (a binding rate of 80% or more is rated “A,”)”.

For the compound `C=CC(=O)N1CC(NC(=O)c2c(Cl)nc(CNc3n[nH]c4cc(Cl)c(C(C)(C)C)cc34)n2C2CN(C(=O)OC(C)(C)C)C2)C1` [Example 106, Tert-butyl 3-(5-((1-acryloylazetidin-3-yl)carbamoyl)-2-(((5-(tert-butyl)-6-chloro-1H-indazol-3-yl)amino)methyl)-4-chloro-1H-imidazol-1-yl)azetidine-1-carboxylate], the negative-log IC50 (pIC50) in assay [4] is 7.38. Besides, the “binding rate for G12C K-Ras4B (1-169)” value in assay [5] is listed as “A (a binding rate of 80% or more is rated “A,”)”.

`C=CC(=O)N1CC(NC(=O)c2c(Cl)nc(CNc3n[nH]c4cc(Cl)c(C(C)(C)C)cc34)n2C2CN(C(C)C)C2)C1` [Example 107, N-(1-acryloylazetidin-3-yl)-2-(((5-(tert-butyl)-6-chloro-1H-indazol-3-yl)amino)methyl)-4-chloro-1-(1-isopropylazetidin-3-yl)-1H-imidazole-5-carboxamide]: in assay [4], the negative-log IC50 (pIC50) was 7.11. Besides, the “binding rate for G12C K-Ras4B (1-169)” value in assay [5] is reported as “A (a binding rate of 80% or more is rated “A,”)”.

On to `C=CC(=O)N1CC(NC(=O)c2c(Cl)nc(CNc3n[nH]c4cc(Cl)c(C(C)(C)C)cc34)n2[C@H]2CC[C@@H](OC)CC2)C1` [Example 112, N-(1-acryloylazetidin-3-yl)-2-(((5-(tert-butyl)-6-chloro-1H-indazol-3-yl)amino)methyl)-4-chloro-1-(4-methoxycyclohexyl)-1H-imidazole-5-carboxamide], for which the negative logarithm of the IC50 (pIC50) in assay [6] is 8.30; in assay [4], 7.28. Further, the “binding rate for G12C K-Ras4B (1-169)” value in assay [5] was “A (a binding rate of 80% or more is rated “A,”)”.

As for `C=CC(=O)N1CC(NC(=O)c2c(Cl)nc(CNc3n[nH]c4cc(Cl)c(C(C)(C)C)cc34)n2[C@@H]2CCN(C(C)C)C2)C1` [Example 114, (R)—N-(1-acryloylazetidin-3-yl)-2-(((5-(tert-butyl)-6-chloro-1H-indazol-3-yl)amino)methyl)-4-chloro-1-(1-isopropylpyrrolidin-3-yl)-1H-imidazole-5-carboxamide], the negative logarithm of the IC50 (pIC50) in assay [4] was 7.49. In addition, the “binding rate for G12C K-Ras4B (1-169)” value in assay [5] is “A (a binding rate of 80% or more is rated “A,”)”.

Turning to `C=CCN1CC[C@@H](n2c(CNc3n[nH]c4cc(Cl)c(C(C)(C)C)cc34)nc(Cl)c2C(=O)NC2CN(C(=O)C=C)C2)C1` [Example 123, (R)—N-(1-acryloylazetidin-3-yl)-1-(1-allylpyrrolidin-3-yl)-2-(((5-(tert-butyl)-6-chloro-1H-indazol-3-yl)amino)methyl)-4-chloro-1H-imidazole-5-carboxamide], the negative-log IC50 (pIC50) in assay [4] was 7.68. In addition, the “binding rate for G12C K-Ras4B (1-169)” value in assay [5] was “A (a binding rate of 80% or more is rated “A,”)”.

For `C=CC(=O)N1CC(NC(=O)c2c(Cl)nc(CNc3n[nH]c4cc(Cl)c(C(C)(C)C)cc34)n2[C@@H]2CCN(c3ccccn3)C2)C1` [Example 124, (R)—N-(1-acryloylazetidin-3-yl)-2-(((5-(tert-butyl)-6-chloro-1H-indazol-3-yl)amino)methyl)-4-chloro-1-(1-(pyridin-2-yl)pyrrolidin-3-yl)-1H-imidazole-5-carboxamide], the negative-log IC50 (pIC50) in assay [4] was 7.72. Moreover, the “binding rate for G12C K-Ras4B (1-169)” value in assay [5] is “A (a binding rate of 80% or more is rated “A,”)”.

For `C=CC(=O)N1CC(NC(=O)c2c(Cl)nc(CNc3n[nH]c4cc(Cl)c(C(C)(C)C)cc34)n2[C@@H]2C[C@@H](C)N(CC(F)F)C2)C1` [Example 126, N-(1-acryloylazetidin-3-yl)-2-(((5-(tert-butyl)-6-chloro-1H-indazol-3-yl)amino)methyl)-4-chloro-1-((3R,5R)-1-(2,2-difluoroethyl)-5-methylpyrrolidin-3-yl)-1H-imidazole-5-carboxamide], in assay [4], the negative logarithm of the IC50 (pIC50) was 7.46. For the same compound, the “binding rate for G12C K-Ras4B (1-169)” value in assay [5] is given as “A (a binding rate of 80% or more is rated “A,”)”.

Source of the values: US12065430B2, “Indazole compound or salt thereof” (TAIHO PHARMACEUTICAL CO., LTD., priority 2018, dated 2024).
